Results reported in ChEMBL document CHEMBL5463727, “Data for DCP probe SGK3-PROTAC1” (2023).
Calls of active or inactive are those of the source. No cut-off for these calls is given here.

Experiments:
[1] = target: Ribosomal protein S6 kinase alpha-3 (Homo sapiens) (UniProt P51812); experiment: % Activity remaining of RSK2 in the Dundee kinase panel at 1.0 µM; conditions: Compound concentration 1.0 uM
[2] = target: Tyrosine-protein kinase ZAP-70 (Homo sapiens) (UniProt P43403); experiment: % Activity remaining of ZAP70 in the Dundee kinase panel at 1.0 µM; conditions: Compound concentration 1.0 uM
[3] = target: Angiopoietin-1 receptor (Homo sapiens) (UniProt Q02763); experiment: % Activity remaining of TIE2 in the Dundee kinase panel at 1.0 µM; conditions: Compound concentration 1.0 uM
[4] = target: Serine/threonine-protein kinase tousled-like 1 (Homo sapiens) (UniProt Q9UKI8); experiment: % Activity remaining of TLK1 in the Dundee kinase panel at 1.0 µM; conditions: Compound concentration 1.0 uM
[5] = target: Tau-tubulin kinase 1 (Homo sapiens) (UniProt Q5TCY1); experiment: % Activity remaining of TTBK1 in the Dundee kinase panel at 1.0 µM; conditions: Compound concentration 1.0 uM
[6] = target: Serine/threonine-protein kinase SIK2 (Homo sapiens) (UniProt Q9H0K1); experiment: % Activity remaining of SIK2 in the Dundee kinase panel at 1.0 µM; conditions: Compound concentration 1.0 uM
[7] = target: Dual specificity mitogen-activated protein kinase kinase 2 (Homo sapiens) (UniProt P36507); experiment: % Activity remaining of MKK2 in the Dundee kinase panel at 1.0 µM; conditions: Compound concentration 1.0 uM
[8] = target: Mitogen-activated protein kinase 10 (Homo sapiens) (UniProt P53779); experiment: % Activity remaining of JNK3 in the Dundee kinase panel at 1.0 µM; conditions: Compound concentration 1.0 uM
Sequence of Mitogen-activated protein kinase 10 (Homo sapiens) (P53779 whole entry): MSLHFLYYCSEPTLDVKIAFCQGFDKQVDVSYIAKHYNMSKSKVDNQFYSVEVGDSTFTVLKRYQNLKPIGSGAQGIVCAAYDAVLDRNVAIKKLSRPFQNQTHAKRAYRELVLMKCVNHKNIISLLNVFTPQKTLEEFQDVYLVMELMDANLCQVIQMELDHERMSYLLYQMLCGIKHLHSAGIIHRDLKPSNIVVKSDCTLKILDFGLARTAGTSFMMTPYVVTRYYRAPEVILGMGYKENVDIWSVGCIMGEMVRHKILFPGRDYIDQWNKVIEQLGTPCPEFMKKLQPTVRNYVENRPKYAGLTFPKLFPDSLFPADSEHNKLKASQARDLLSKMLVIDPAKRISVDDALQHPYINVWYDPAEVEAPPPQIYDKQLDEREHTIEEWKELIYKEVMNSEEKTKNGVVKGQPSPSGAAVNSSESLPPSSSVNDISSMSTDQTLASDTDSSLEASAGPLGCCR

[9] = target: Calcium/calmodulin-dependent protein kinase kinase 2 (Homo sapiens) (UniProt Q96RR4); experiment: % Activity remaining of CAMKK beta in the Dundee kinase panel at 1.0 µM; conditions: Compound concentration 1.0 uM
[10] = target: 3-phosphoinositide-dependent protein kinase 1 (Homo sapiens) (UniProt O15530); experiment: % Activity remaining of PDK1 in the Dundee kinase panel at 1.0 µM; conditions: Compound concentration 1.0 uM
[11] = target: Homeodomain-interacting protein kinase 3 (Homo sapiens) (UniProt Q9H422); experiment: % Activity remaining of HIPK3 in the Dundee kinase panel at 1.0 µM; conditions: Compound concentration 1.0 uM
[12] = target: Rho-associated protein kinase 2 (Homo sapiens) (UniProt O75116); experiment: % Activity remaining of ROCK 2 in the Dundee kinase panel at 1.0 µM; conditions: Compound concentration 1.0 uM
[13] = target: Tyrosine-protein kinase Lck (Homo sapiens) (UniProt P06239); experiment: % Activity remaining of Lck in the Dundee kinase panel at 1.0 µM; conditions: Compound concentration 1.0 uM
[14] = target: cAMP-dependent protein kinase catalytic subunit alpha (Homo sapiens) (UniProt P17612); experiment: % Activity remaining of PKA in the Dundee kinase panel at 1.0 µM; conditions: Compound concentration 1.0 uM
[15] = target: Serine/threonine-protein kinase PAK 4 (Homo sapiens) (UniProt O96013); experiment: % Activity remaining of PAK4 in the Dundee kinase panel at 1.0 µM; conditions: Compound concentration 1.0 uM
[16] = target: Mitogen-activated protein kinase 1 (Homo sapiens) (UniProt P28482); experiment: % Activity remaining of ERK2 in the Dundee kinase panel at 1.0 µM; conditions: Compound concentration 1.0 uM
Sequence of Mitogen-activated protein kinase 1 (Homo sapiens) (P28482 whole entry): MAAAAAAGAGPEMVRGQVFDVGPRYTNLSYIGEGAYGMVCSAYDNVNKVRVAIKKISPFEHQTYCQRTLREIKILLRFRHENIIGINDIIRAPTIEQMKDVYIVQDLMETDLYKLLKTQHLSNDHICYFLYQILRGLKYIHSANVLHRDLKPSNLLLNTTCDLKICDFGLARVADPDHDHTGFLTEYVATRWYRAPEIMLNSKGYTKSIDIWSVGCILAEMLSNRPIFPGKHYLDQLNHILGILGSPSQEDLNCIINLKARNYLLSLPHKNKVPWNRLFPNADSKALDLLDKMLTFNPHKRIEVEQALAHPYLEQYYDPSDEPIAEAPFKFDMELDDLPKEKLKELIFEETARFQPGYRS

[17] = target: Mitogen-activated protein kinase 14 (Homo sapiens) (UniProt Q16539); experiment: % Activity remaining of p38 alpha MAPK in the Dundee kinase panel at 1.0 µM; conditions: Compound concentration 1.0 uM
[18] = target: Mitogen-activated protein kinase 12 (Homo sapiens) (UniProt P53778); experiment: % Activity remaining of p38 gamma MAPK in the Dundee kinase panel at 1.0 µM; conditions: Compound concentration 1.0 uM
[19] = target: Ephrin type-B receptor 4 (Homo sapiens) (UniProt P54760); experiment: % Activity remaining of EPH-B4 in the Dundee kinase panel at 1.0 µM; conditions: Compound concentration 1.0 uM
[20] = target: SRSF protein kinase 1 (Homo sapiens) (UniProt Q96SB4); experiment: % Activity remaining of SRPK1 in the Dundee kinase panel at 1.0 µM; conditions: Compound concentration 1.0 uM
[21] = target: Serine/threonine-protein kinase ULK1 (Homo sapiens) (UniProt O75385); experiment: % Activity remaining of ULK1 in the Dundee kinase panel at 1.0 µM; conditions: Compound concentration 1.0 uM
[22] = target: Inhibitor of nuclear factor kappa-B kinase subunit beta (Homo sapiens) (UniProt O14920); experiment: % Activity remaining of IKK beta in the Dundee kinase panel at 1.0 µM; conditions: Compound concentration 1.0 uM
Sequence of Inhibitor of nuclear factor kappa-B kinase subunit beta (Homo sapiens) (O14920 whole entry): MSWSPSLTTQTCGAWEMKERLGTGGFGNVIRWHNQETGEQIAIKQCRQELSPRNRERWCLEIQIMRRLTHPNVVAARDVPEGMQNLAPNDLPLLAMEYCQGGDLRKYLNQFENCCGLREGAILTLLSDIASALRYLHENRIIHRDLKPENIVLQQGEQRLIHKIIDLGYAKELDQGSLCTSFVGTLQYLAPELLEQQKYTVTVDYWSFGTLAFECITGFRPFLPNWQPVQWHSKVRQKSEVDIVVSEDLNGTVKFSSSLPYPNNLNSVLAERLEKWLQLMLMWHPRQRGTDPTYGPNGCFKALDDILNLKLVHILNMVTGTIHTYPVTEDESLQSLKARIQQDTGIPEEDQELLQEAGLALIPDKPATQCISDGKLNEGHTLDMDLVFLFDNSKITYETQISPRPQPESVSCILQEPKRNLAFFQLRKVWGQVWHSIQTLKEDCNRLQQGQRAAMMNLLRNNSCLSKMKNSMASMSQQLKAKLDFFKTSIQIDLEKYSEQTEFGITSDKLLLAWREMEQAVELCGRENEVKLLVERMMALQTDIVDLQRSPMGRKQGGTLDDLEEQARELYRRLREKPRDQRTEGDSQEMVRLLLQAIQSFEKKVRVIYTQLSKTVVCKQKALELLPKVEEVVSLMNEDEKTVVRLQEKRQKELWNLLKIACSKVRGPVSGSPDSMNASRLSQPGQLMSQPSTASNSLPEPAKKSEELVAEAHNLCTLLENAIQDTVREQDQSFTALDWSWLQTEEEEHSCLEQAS

[23] = target: Ribosomal protein S6 kinase alpha-5 (Homo sapiens) (UniProt O75582); experiment: % Activity remaining of MSK1 in the Dundee kinase panel at 1.0 µM; conditions: Compound concentration 1.0 uM
[24] = target: Cyclin-dependent kinase 2/cyclin A (Homo sapiens) (UniProt P24941+P20248+P78396); experiment: % Activity remaining of CDK2-Cyclin A in the Dundee kinase panel at 1.0 µM; assay type: protein-complex assay; conditions: Compound concentration 1.0 uM
[25] = target: Mitogen-activated protein kinase 11 (Homo sapiens) (UniProt Q15759); experiment: % Activity remaining of p38 beta MAPK in the Dundee kinase panel at 1.0 µM; conditions: Compound concentration 1.0 uM
[26] = target: Tau-tubulin kinase 2 (Homo sapiens) (UniProt Q6IQ55); experiment: % Activity remaining of TTBK2 in the Dundee kinase panel at 1.0 µM; conditions: Compound concentration 1.0 uM
[27] = target: Receptor tyrosine-protein kinase erbB-4 (Homo sapiens) (UniProt Q15303); experiment: % Activity remaining of HER4 in the Dundee kinase panel at 1.0 µM; conditions: Compound concentration 1.0 uM
Sequence of Receptor tyrosine-protein kinase erbB-4 (Homo sapiens) (Q15303 whole entry): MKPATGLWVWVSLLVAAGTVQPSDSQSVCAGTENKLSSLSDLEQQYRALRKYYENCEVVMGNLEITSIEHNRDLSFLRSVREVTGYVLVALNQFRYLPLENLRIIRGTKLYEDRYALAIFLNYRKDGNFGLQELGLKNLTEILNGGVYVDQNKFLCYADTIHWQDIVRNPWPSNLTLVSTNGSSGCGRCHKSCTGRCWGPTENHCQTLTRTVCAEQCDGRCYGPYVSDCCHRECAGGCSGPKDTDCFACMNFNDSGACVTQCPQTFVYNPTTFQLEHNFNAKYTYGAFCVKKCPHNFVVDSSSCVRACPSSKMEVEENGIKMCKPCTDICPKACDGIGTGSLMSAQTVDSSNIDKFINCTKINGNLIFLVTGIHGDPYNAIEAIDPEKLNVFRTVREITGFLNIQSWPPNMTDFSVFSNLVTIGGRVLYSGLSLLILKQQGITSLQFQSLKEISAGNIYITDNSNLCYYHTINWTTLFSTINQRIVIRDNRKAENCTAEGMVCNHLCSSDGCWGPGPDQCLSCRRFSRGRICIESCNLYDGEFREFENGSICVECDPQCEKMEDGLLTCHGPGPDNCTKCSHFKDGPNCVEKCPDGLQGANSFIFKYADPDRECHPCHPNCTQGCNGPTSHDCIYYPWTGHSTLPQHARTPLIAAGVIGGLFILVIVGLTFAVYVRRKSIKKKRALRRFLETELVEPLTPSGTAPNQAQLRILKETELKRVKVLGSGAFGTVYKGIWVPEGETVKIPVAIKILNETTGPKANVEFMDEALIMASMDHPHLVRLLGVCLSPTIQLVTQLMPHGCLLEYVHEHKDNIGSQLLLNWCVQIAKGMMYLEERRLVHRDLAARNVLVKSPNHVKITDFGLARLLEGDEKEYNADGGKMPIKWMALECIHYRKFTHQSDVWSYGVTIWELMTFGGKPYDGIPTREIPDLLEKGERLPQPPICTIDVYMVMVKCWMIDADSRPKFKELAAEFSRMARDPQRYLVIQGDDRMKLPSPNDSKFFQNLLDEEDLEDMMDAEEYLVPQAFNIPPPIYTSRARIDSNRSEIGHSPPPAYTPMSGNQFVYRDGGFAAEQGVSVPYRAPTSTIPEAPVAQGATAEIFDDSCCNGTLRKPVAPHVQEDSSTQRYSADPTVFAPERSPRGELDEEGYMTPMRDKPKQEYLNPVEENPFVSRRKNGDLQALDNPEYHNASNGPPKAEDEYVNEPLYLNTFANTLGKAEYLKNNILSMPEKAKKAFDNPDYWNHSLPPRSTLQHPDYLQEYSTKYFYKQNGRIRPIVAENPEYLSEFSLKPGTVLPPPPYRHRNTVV

[28] = target: Fibroblast growth factor receptor 1 (Homo sapiens) (UniProt P11362); experiment: % Activity remaining of FGF-R1 in the Dundee kinase panel at 1.0 µM; conditions: Compound concentration 1.0 uM
[29] = target: Serine/threonine-protein kinase 16 (Homo sapiens) (UniProt O75716); experiment: % Activity remaining of MPSK1 in the Dundee kinase panel at 1.0 µM; conditions: Compound concentration 1.0 uM
[30] = target: MAP kinase-activated protein kinase 5 (Homo sapiens) (UniProt Q8IW41); experiment: % Activity remaining of PRAK in the Dundee kinase panel at 1.0 µM; conditions: Compound concentration 1.0 uM
[31] = target: Serine/threonine-protein kinase Sgk3 (Homo sapiens, UniProt Q96BR1); experiment: SGK3 radioactive filter binding assay using 33P ATP (Dundee kinase screen)
[32] = target: Serine/threonine-protein kinase WNK1 (Homo sapiens) (UniProt Q9H4A3); experiment: % Activity remaining of WNK1 in the Dundee kinase panel at 1.0 µM; conditions: Compound concentration 1.0 uM
[33] = target: Mitogen-activated protein kinase kinase kinase 11 (Homo sapiens) (UniProt Q16584); experiment: % Activity remaining of MLK3 in the Dundee kinase panel at 1.0 µM; conditions: Compound concentration 1.0 uM
Sequence of Mitogen-activated protein kinase kinase kinase 11 (Homo sapiens) (Q16584 whole entry, looked up, canonical isoform): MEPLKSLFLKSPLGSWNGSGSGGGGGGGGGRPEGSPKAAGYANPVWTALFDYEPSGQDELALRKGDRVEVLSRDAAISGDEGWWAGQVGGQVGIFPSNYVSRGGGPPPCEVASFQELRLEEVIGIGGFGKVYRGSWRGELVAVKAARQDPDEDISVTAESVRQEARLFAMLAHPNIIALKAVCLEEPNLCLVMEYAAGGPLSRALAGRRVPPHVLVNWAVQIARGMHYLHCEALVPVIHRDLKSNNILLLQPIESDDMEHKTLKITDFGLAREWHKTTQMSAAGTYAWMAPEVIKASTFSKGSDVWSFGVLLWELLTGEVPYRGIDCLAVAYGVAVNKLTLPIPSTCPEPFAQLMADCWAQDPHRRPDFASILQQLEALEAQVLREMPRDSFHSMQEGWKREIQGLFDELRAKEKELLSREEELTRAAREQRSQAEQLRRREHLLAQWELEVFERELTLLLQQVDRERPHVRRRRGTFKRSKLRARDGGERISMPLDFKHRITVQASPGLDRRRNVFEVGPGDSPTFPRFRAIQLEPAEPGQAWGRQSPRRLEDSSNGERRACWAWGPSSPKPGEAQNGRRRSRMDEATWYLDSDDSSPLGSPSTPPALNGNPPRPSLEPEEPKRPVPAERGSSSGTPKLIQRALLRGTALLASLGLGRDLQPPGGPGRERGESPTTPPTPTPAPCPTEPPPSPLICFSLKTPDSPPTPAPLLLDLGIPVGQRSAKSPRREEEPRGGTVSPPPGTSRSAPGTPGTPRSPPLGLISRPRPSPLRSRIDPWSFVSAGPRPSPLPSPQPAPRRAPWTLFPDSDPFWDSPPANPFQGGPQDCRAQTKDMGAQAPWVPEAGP

[34] = target: Casein kinase I isoform gamma-2 (Homo sapiens) (UniProt P78368); experiment: % Activity remaining of CK1 gamma 2 in the Dundee kinase panel at 1.0 µM; conditions: Compound concentration 1.0 uM
[35] = target: Inhibitor of nuclear factor kappa-B kinase subunit epsilon (Homo sapiens) (UniProt Q14164); experiment: % Activity remaining of IKK epsilon in the Dundee kinase panel at 1.0 µM; conditions: Compound concentration 1.0 uM
[36] = target: Serine/threonine-protein kinase PINK1, mitochondrial (Homo sapiens) (UniProt Q9BXM7); experiment: % Activity remaining of PINK in the Dundee kinase panel at 1.0 µM; conditions: Compound concentration 1.0 uM
Sequence of Serine/threonine-protein kinase PINK1, mitochondrial (Homo sapiens) (Q9BXM7 whole entry): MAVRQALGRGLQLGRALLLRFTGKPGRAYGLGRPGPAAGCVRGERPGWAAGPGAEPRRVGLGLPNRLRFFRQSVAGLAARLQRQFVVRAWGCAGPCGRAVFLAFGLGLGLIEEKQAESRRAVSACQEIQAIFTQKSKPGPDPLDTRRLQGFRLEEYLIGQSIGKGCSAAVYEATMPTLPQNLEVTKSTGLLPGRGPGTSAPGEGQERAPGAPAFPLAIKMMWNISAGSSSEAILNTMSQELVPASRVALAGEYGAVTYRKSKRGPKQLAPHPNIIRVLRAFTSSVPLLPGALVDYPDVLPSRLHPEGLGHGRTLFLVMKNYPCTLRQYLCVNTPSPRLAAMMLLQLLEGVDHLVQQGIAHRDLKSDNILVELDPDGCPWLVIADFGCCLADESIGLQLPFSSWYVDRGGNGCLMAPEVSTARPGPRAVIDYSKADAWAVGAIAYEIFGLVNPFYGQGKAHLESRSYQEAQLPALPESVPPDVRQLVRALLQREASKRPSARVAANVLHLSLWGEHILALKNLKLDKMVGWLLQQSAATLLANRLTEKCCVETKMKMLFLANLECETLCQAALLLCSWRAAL

[37] = target: Serine/threonine-protein kinase TBK1 (Homo sapiens) (UniProt Q9UHD2); experiment: % Activity remaining of TBK1 in the Dundee kinase panel at 1.0 µM; conditions: Compound concentration 1.0 uM
[38] = target: Tyrosine-protein kinase SYK (Homo sapiens) (UniProt P43405); experiment: % Activity remaining of SYK in the Dundee kinase panel at 1.0 µM; conditions: Compound concentration 1.0 uM
[39] = target: Tyrosine-protein kinase Yes (Homo sapiens) (UniProt P07947); experiment: % Activity remaining of YES1 in the Dundee kinase panel at 1.0 µM; conditions: Compound concentration 1.0 uM
Sequence of Tyrosine-protein kinase Yes (Homo sapiens) (P07947 2-543 limits assumed): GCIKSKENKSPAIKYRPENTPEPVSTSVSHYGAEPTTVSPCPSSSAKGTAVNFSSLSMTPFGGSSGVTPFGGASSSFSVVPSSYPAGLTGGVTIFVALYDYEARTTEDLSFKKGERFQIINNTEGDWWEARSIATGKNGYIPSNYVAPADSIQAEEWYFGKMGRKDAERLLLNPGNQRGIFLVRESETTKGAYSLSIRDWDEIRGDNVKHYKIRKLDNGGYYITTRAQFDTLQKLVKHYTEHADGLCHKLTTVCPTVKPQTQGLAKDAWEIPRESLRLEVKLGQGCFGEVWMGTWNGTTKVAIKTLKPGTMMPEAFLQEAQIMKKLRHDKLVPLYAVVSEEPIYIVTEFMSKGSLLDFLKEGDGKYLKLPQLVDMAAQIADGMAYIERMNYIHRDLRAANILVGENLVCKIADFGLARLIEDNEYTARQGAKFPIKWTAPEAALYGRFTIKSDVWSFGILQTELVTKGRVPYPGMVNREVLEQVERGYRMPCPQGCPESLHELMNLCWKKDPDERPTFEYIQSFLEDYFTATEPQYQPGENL

SMILES | % Activity remaining [1] [%] | % Activity remaining [2] [%] | % Activity remaining [3] [%] | % Activity remaining [4] [%] | % Activity remaining [5] [%] | % Activity remaining [6] [%] | % Activity remaining [7] [%] | % Activity remaining [8] [%] | % Activity remaining [9] [%] | % Activity remaining [10] [%] | % Activity remaining [11] [%] | % Activity remaining [12] [%] | % Activity remaining [13] [%] | % Activity remaining [14] [%] | % Activity remaining [15] [%] | % Activity remaining [16] [%] | % Activity remaining [17] [%] | % Activity remaining [18] [%] | % Activity remaining [19] [%] | % Activity remaining [20] [%] | also measured
Cc1ccc(F)c(S(=O)(=O)Nc2ccc(-c3nc(OC[C@H]4CN(CCCCCCOCCOCCOCC(=O)N[C@H](C(=O)N5C[C@@H](O)C[C@H]5C(=O)NCc5ccc(-c6scnc6C)cc5)C(C)(C)C)CCO4)c4cn[nH]c4n3)cc2)c1 | 109 | 74.7 | 80.8 | 109 | 113 | 93.8 | 124 | 82.5 | 108 | 86.5 | 105 | 119 | 116 | 111 | 113 | 95.2 | 109 | 127 | 108 | 104 | % Activity remaining [21]: 112%; % Activity remaining [22]: 101%; % Activity remaining [23]: 56.5%; % Activity remaining [24]: 103%; % Activity remaining [25]: 112%; % Activity remaining [26]: 89.7%; % Activity remaining [27]: 103%; % Activity remaining [28]: 106%; % Activity remaining [29]: 139%; % Activity remaining [30]: 119%; IC50 [31]: 600 nM (not active); % Activity remaining [32]: 96.6%; % Activity remaining [33]: 75.6%; % Activity remaining [34]: 106%; % Activity remaining [35]: 99%; % Activity remaining [36]: 109%; % Activity remaining [37]: 111%; % Activity remaining [38]: 103%; % Activity remaining [39]: 105%
Cc1ccc(F)c(S(=O)(=O)Nc2ccc(-c3nc(OC[C@H]4CN(CCCCCCOCCOCCOCC(=O)N[C@H](C(=O)N5C[C@H](O)C[C@H]5C(=O)NCc5ccc(-c6scnc6C)cc5)C(C)(C)C)CCO4)c4cn[nH]c4n3)cc2)c1 | 120 | 75 | 63.8 | 102 | 105 | 94.6 | 114 | 92.1 | 98.9 | 99.3 | 111 | 113 | 124 | 108 | 81.1 | 104 | 125 | 107 | 107 | 95.8 | % Activity remaining [21]: 116%; % Activity remaining [22]: 99.9%; % Activity remaining [23]: 49.6%; % Activity remaining [24]: 101%; % Activity remaining [25]: 107%; % Activity remaining [26]: 93.5%; % Activity remaining [27]: 92%; % Activity remaining [28]: 108%; % Activity remaining [29]: 127%; % Activity remaining [30]: 115%; IC50 [31]: 300 nM (active); % Activity remaining [32]: 93.8%; % Activity remaining [33]: 70.5%; % Activity remaining [34]: 101%; % Activity remaining [35]: 108%; % Activity remaining [36]: 108%; % Activity remaining [37]: 93.4%; % Activity remaining [38]: 116%; % Activity remaining [39]: 108%
